Reference: publication PMC6154319, “Intestinal Transport Characteristics and Metabolism of C-Glucosyl Dihydrochalcone, Aspalathin” (Molecules : A Journal of Synthetic Chemistry and Natural …, 2017)
Marks after values point to notes of the source that are not given here.

What was measured:
[1] = Acute mouse study, metabolite identification in blood and urine by LC-MS/MS; assay type: in vivo; details: oral 50 mg/kg
Method: An acute mouse study was performed under ethical approval from the Ethics Committee for Research on Animals (ECRA) of the South African Medical Research Council (Ref:07/13). Three 8-week old male C57.BKS mice, obtained from the Primate Unit of the South African Medical Research Council (Tygerberg, South Africa), were housed individually in polycarbonate cages with wired lids and kept in a controlled environment of 23–24 °C, 50% humidity, and a 12 h light/dark cycle. Prior to the study, urine was collected from the fasting mice overnight in a metabolic cage. Baseline fasted blood was collected via tail snip into a heparin tube, snap frozen in liquid nitrogen, and stored at −80 °C. Each mouse received a single dose of synthetic aspalathin (50 mg/kg body weight) dissolved in phosphate-buffered saline (PBS) (5 mg/mL) via orogastric gavage. Blood samples were collected and handled as described for fasting at time 0 (pre-gavage), and 1, 2, 4, 6, and 8 h post-gavage. All the samples were collected into the same heparin tube and kept on ice during the experiment. Urine was collected over the 8-h post-gavage monitoring period and the samples were stored at −80 °C until analysis.
The frozen whole blood samples, as well as the samples incubated with microsomes and controls, were thawed, extracted by protein precipitation using 0.1% formic acid (FA) in acetonitrile, centrifuged and filtered through 0.22 µm polyvinylidene difluoride (PVDF) filters (Merck Millipore, Frankfurter Straße, Darmstadt, Germany). Frozen whole urine samples were thawed and diluted 5 times in 0.1% aqueous FA. Samples were analysed by LC-MS/MS on an Agilent 1200 Rapid Resolution HPLC system (600 bar, Agilent Technologies) coupled to a 4000 QTRAP® (AB Sciex, Framingham, MA, USA) equipped with a Turbo V™ […]. Filtered samples (10 μL), stored on a sample tray maintained at 8 °C, were injected on a Gemini C6-Phenyl column (150 × 2.0 mm, 3 µm particles) (Phenomenex, Santa Clara, CA, USA) at 40 °C. […]

GLUT2 = target: T1, GLUT2 (Homo sapiens, UniProt P11168); details: aspalathin 100 µM; 100 µM phloretin (GLUT2)
T1 sequence (P11168 1-524): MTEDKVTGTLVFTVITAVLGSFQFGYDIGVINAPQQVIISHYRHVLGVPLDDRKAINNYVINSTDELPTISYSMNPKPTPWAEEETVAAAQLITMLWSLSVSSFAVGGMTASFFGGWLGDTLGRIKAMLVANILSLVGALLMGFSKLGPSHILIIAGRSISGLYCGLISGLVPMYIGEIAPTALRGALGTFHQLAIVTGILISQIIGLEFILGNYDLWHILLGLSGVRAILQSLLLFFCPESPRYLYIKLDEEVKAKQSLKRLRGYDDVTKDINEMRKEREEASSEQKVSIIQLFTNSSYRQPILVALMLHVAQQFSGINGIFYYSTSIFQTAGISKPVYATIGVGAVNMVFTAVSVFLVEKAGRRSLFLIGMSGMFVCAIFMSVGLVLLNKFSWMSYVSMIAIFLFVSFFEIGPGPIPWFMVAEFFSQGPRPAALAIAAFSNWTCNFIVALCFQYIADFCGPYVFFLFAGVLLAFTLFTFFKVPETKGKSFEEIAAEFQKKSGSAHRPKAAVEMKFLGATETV

[2] = Stability of aspalathin (in SB1) in water and HEPES buffer; assay type: physicochemical; details: 2 h incubation, aspalathin in extract SB1

In the case of `O=C(CCc1ccc(O)c(O)c1)c1c(O)cc(O)c([C@@H]2O[C@H](CO)[C@@H](O)[C@H](O)[C@H]2O)c1O` [Aspalathin], the “detection of aspalathin and metabolites in blood” value ([1]; blood 1-8 h post-gavage) is reported as “No aspalathin, nor any of its metabolites, could be detected”, the “number of aspalathin metabolites detected in the urine” value ([1]; urine over 8 h) is reported as 13 and the “Papp a-b + Inhibitor (phloretin)” value (GLUT2) is reported as 1.67 ± 0.43 ^c ×10^−6 cm/s. The “Papp b-a + Inhibitor (phloretin)” value (GLUT2) was 1.95 ± 1.1 ^c ×10^−6 cm/s, the percentage aspalathin degradation ([2]; HEPES buffer pH 6) was 10% and the percentage aspalathin degradation ([2]; HEPES buffer pH 7.4) was 11%. For the same compound, the percentage aspalathin degradation ([2]; deionised water) was 1%.
